Assays:
[1] = target: T1, PR (Homo sapiens, UniProt P06401); experiment: MMTV-Luc reporter gene transactivation in HBE cells (MMTV-Luc alone); format: cell-based; settings: P 100 nM, p<0.05
T1 sequence (P06401 1-933): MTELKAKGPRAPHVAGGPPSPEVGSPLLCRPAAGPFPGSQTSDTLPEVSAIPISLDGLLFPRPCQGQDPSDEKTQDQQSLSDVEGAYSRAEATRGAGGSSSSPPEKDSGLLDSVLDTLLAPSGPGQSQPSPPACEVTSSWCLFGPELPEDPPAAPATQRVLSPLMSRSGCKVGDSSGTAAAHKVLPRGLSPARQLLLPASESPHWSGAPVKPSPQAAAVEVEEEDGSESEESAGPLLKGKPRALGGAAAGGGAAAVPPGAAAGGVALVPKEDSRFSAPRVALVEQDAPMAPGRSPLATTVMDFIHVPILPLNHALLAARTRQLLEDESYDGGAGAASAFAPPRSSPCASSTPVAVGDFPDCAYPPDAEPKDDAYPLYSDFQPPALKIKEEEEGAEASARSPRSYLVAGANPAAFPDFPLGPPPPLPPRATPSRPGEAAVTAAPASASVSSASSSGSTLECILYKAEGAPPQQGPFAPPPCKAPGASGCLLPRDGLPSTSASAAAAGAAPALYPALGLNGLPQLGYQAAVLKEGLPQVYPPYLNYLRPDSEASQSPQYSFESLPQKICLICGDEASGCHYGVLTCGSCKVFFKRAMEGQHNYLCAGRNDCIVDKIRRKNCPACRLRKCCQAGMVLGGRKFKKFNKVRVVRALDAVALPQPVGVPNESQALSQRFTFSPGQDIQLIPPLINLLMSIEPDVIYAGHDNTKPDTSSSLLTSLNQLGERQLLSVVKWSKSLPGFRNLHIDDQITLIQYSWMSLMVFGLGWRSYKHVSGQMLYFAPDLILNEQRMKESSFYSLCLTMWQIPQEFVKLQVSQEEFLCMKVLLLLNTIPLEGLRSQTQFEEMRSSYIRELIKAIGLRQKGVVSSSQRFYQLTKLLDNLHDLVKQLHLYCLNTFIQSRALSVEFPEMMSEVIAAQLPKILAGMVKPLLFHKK
Experimental: T-47D and MCF-7 cell lines were respectively maintained in RPMI 1640 and in DMEM medium supplemented with 10% fetal calf serum (PAA Laboratory, Les Mureaux, France). […] Normal human breast epithelial cell (HBE) primary cultures were obtained from 20 women (aged 17-50 years). […] HBE cells were maintained in HAM F10 medium (PAA Laboratory, Les Mureaux, France) containing hydrocortisone (5 ng/ml), Triiodo-L-thyronine (6.5 ng/ml), choleratoxin (10 ng/ml), transferrin (5 mg/ml), insulin (0.016 U/ml), epidermal growth factor (10 ng/ml) (Sigma, St Quentin Fallavier, France) and 5% human serum (Etablissement Français du Sang). […]
Cells were transfected with reporter gene plasmids containing glucocorticoid and progesterone responsive elements (GRE/PRE): 1) the MMTV-Luc is a Mouse Mammary Tumor Virus Long Terminal Repeat promoter containing one GRE/PRE palindrome and three GRE/PRE hemi-palindromes upstream to firefly luciferase gene in pFC31 vector, 2) the GRELuc contains six copies of GRE/PRE palindrome upstream to firefly luciferase gene in pBL vector. […] At the end of the experiment, cells were lysed and luciferase activity was determined using the Luciferase Assay System (Promega, Charbonnières-les-bains, France). Beta galactosidase activity was assessed using the Galacto Star kit (Applied Biosystems, Courtaboeuf, France) to normalize luciferase activity data.

[2] = system: PR target genes (FASN, cyclin A, BCL2, ALPL); experiment: qRT-PCR mRNA expression of PR target genes in HBE cells; format: cell-based, human; settings: P and/or UPA 100 nM, E2 10 nM
Experimental: (§1) After seeding, cells were cultured for 24 h in serum and phenol red free medium. Then treatments were carried out in a phenol red free medium containing 5% dextran-charcoal stripped serum. Cells were treated with P or DEX (100 nM), alone or in combination with UPA, RU (1 nM to 1 μM) or CDB-3877 (100 nM). Control cells were treated with ethanol, at […] 1:1000 final ethanol concentration alone as vehicle or E2 (10 nM).
(§2) Total RNA was extracted using TriZOL Reagent (Invitrogen, Cergy-Pontoise, France).
(§3) 2 μg of total RNA was subjected to reverse transcription (RT) using random primers for 1 h at 37° C. 2 μl of RT product was diluted (1:10) and subjected to quantitative PCR using sequence specific primers (300 nM) and Brillant SYBR GREEN QPCR master mix (Fermentas, Saint-Rémy-lès-Chevreuse, France) on an Mx3000P apparatus (Agilent Technologies, Massy, France). Conditions were 1 cycle at 95° C. for 10 min followed by 40 cycles at 95° C. for 30 sec, 60° C. for 1 min and 72° C. for 30 sec. Gene expression values were normalized to the housekeeping gene 36B4. Time of steroid treatment was chosen to get the optimal stimulation for a given gene. ALPL and G0S8 mRNA were analyzed after 6 h of treatment. IEX-1, FASN, and BCL2 were analyzed after 24 h of treatment. Cyclin A mRNA was analyzed after 24 h for GR responses or 48 h for PR responses.

[3] = system: PR target genes (FASN, cyclin A, BCL2, ALPL); experiment: qRT-PCR mRNA expression of PR target genes in T-47D cells; format: cell-based, human; settings: P and/or UPA 100 nM
Experimental: as §1, §2, §3

[4] = system: HBE cells; experiment: Tritiated thymidine incorporation (proliferation) in HBE cells; format: cell-based, human; settings: 96 h, 100 nM
Experimental: as §1
(§4) After 24 h of hormonal treatment, cells were incubated with [methyl-1 3H] thymidine (Perkin Elmer, Courtaboeuf, France) for 48 h or 20 h for KBE or cancer cells, respectively at 37° C. After incubation cells were washed twice with PBS 1× and once with 5% trichloroacetic acid (TCA). Cells were incubated in 5% TCA for 15 min at 4° C. and lysed in NaOH 0.1 N for 30 min at 37° C. The total cell lysate was added to 5 ml of Ecolite scintillation liquid (MP biomedical, Illkirch, France) and radioactivity was counted with a β-counter HIDEX 300SL (ScienceTec, Courtaboeuf, France).

[5] = system: T-47D cells; experiment: Tritiated thymidine incorporation (proliferation) in T-47D cells; format: cell-based, human; settings: 48 h, 100 nM
Experimental: as §1, §4

[6] = system: HBE cells; experiment: Apoptosis, sub-G1 quantification by flow cytometry in HBE cells; format: cell-based, human; settings: 96 h, 100 nM
Experimental: as §1
(§5) After 96 h or 48 h of hormonal treatment, respectively, for HBE or MCF-7 and T-47D cells, cells were washed in PBS, matrix dissociated with accutase enzyme (PAA laboratory, Les Mureaux, France), and centrifuged 5 minutes at 1350 rpm. Cells were fixed and frozen at −20° C. in 70% ethanol. Before analysis, cells were washed in PBS and stained with 10 μg/ml propidium iodide in PBS (containing 0.835 U/ml RNase A) (Sigma, St Quentin Fallavier, France). For each sample at least 10 000 cells were counted in a BD LSR II flow cytometer (BD Biosciences, Le Pont de Claix, France). After gating out doublets and debris, cycle distribution was analyzed using the ModFit LT software (Verity Software House, USA).

[7] = system: T-47D cells; experiment: Apoptosis, sub-G1 quantification by flow cytometry in T-47D cells; format: cell-based, human; settings: 48 h, 100 nM
Experimental: as §1, §5

[8] = Hormone concentrations in serum of pellet-treated athymic mice; format: in vivo; settings: female, NMRI nu/nu athymic, mouse, other: steroid pellets grafted onto the neck, 20 mg pellet (P from day 14, UPA from day 1), day 28, read-out: concentration in mice serum (mean±SEM)
Experimental: Four weeks old ovariectomized female NMRInu/nu 20 athymic mice were purchased from Janvier laboratory (Le Genest Saint Isle, France). Breast tissues samples were obtained from 6 women (aged 29-42 years). Human mammary gland tissue was cut into 2×2×2 mm fragments and 4 fragments were then subcutaneously xenografted onto the back of 4 mice per group. Four treatment groups were performed: control, E2, E2+P and E2+P+UPA. Treatments were administered by grafting steroid pellets onto the neck of each mouse. The experimental conditions were initially determined by using a dose range of hormones mixed with cholesterol into the pellets. Blood sample assays were performed after 2 weeks and 4 weeks of treatment to measure plasmatic hormonal concentrations. Finally, the dose of 0.3 mg for E2 and 20 mg for P and UPA were used, as it provides the expected blood concentrations. For the control groups, pellets containing only cholesterol were used. To reproduce menstrual cycle conditions, mice were grafted on the first day of experiment with cholesterol, E2 and/or UPA containing pellets and on the fourteen day with cholesterol or progesterone containing pellets in control and E2 groups, or in E+P and E2+P+UPA groups, respectively. Twenty eight days after the start of experiment, mice were sacrificed. Blood was collected for each mouse, and serum was frozen at −20° C. until hormone concentrations
Estradiol was measured by radioimmunoassay using Clinical Assays Estradiol-2 (Sorin Biomedica Diagnostics SpA, Saluggia, Italia). Progesterone levels were evaluated by UPLC-MSMS using Acquity UPLC and Quattro Premier XE (Waters, Milford Mass., USA).
UPA concentrations were measured using LC-MS/MS technique by MPI Research (State College, Pa., USA).

CC(=O)[C@H]1CC[C@H]2[C@@H]3CCC4=CC(=O)CC[C@]4(C)[C@H]3CC[C@]12C [P, progesterone]
luciferase expression (MMTV-Luc) [1]: 1.38±0.11 control fold induction
BCL2 mRNA expression (PR response) ([2]; 24 h): decrease of BCL2 mRNA expression by P
FASN mRNA expression ([2]; 24 h): induction of FASN mRNA expression
cyclin A mRNA expression (PR response) ([2]; 48 h): down regulated cyclin A mRNA expression
ALPL mRNA expression ([3]; 6 h): strong P mediated induction of ALPL transcript
FASN mRNA expression ([3]; 24 h): induction of FASN mRNA expression
BCL2 mRNA expression (PR response) ([3]; 24 h, p<0.01): decrease of BCL2 mRNA expression by P
cyclin A mRNA expression (PR response) ([3]; 48 h): down regulated cyclin A mRNA expression
cell proliferation ([3H] thymidine incorporation), compound alone [4]: anti-proliferative effect
cell proliferation ([3H] thymidine incorporation), compound alone [5]: anti-proliferative activity
cell apoptosis (sub-G1 percentage), compound alone [6]: intense pro-apoptotic effect
cell apoptosis (sub-G1 percentage), compound alone [7]: increased the percentage of sub-G1 cells
concentration at 28 days [8]: 13.1 ± 1.14 ng/mL
